In ChEMBL document CHEMBL1150914, “New pyrrole alkaloids from Solanum sodomaeum” (J Nat Prod, 1998):
≈ marks a conversion by molar mass, not a printed value. Calls of active or inactive are those of the source. The calls are words filed in the database; no cut-off is given here.

How the values were obtained:
Plasmodium falciparum [1] = experiment: Antimalarial activity against Plasmodium falciparum W2; format: functional, organism-based
Plasmodium falciparum [2] = experiment: Antimalarial activity against Plasmodium falciparum D6; format: functional, organism-based
Vero = experiment: Cytotoxicity against african green monkey Vero cells; format: cell-based; settings: chlorocebus sabaeus
Cryptococcus neoformans = experiment: Antifungal activity against Cryptococcus neoformans; format: functional, organism-based
Candida albicans = experiment: Antifungal activity against Candida albicans; format: functional, organism-based
[3] = tested on: Mycobacterium intracellulare; experiment: Antibacterial activity against Mycobacterium intracellular; format: functional

Structure (SMILES) | Activity (Plasmodium falciparum [1]) | Activity (Plasmodium falciparum [2]) | Activity (Vero) | Activity (Cryptococcus neoformans) | Activity (Candida albicans) | MIC [3] [µg/mL]
CNCCCN(C=O)c1cc[nH]c1 [SOLSODOMINE B] | inactive | inactive | Not Active | inactive | inactive | –
O=CN(CCc1cnc[nH]1)c1cc[nH]c1 [SOLSODOMINE A] | inactive | inactive | Not Active | inactive | inactive | 10 (≈ 49 µM)
